Measurements from PubChem BioAssay AID1963443 (Molecular Pharmacology Branch, DTP, NCI, 2024).
Where “and” joins values, the source holds several entries; their conditions need not be identical. Equal values may be shown once.

Tested on: MDA-MB-231 complex spheroids, growth inhibition
Test: Anticancer human tumor MDA-MB-231 cell line growth inhibition [Asc];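 note: spheroids exposed to compounds for 7 days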
Settings: for viability, T/C: stronger effect = lower value
Procedure, shortened: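 Complex solid-tumor spheroids incorporating human endothelial and mesenchymal stem cells received single agents or combinations over half-log dilution ranges anchored to clinical Cmax.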

[1] = curve of first compound, second compound 0.03 µM
[2] = curve of first compound, second compound 0.0949 µM
[3] = curve of first compound, second compound 0.3 µM
[4] = curve of first compound, second compound 0.949 µM
[5] = curve of first compound, second compound 3 µM
[6] = second compound 0.03 µM, first compound 0.0316 µM
[7] = second compound 0.03 µM, first compound 0.1 µM
[8] = second compound 0.0949 µM, first compound 0.0316 µM
[9] = second compound 0.0949 µM, first compound 0.1 µM
[10] = second compound 0.3 µM, first compound 0.0316 µM
[11] = second compound 0.3 µM, first compound 0.1 µM
[12] = second compound 0.949 µM, first compound 0.0316 µM
[13] = second compound 0.949 µM, first compound 0.1 µM
[14] = second compound 3 µM, first compound 0.0316 µM
[15] = second compound 3 µM, first compound 0.1 µM
[16] = curve of first compound, second compound 0.01 µM
[17] = curve of first compound, second compound 0.0316 µM
[18] = curve of first compound, second compound 0.1 µM
[19] = curve of first compound, second compound 0.316 µM
[20] = curve of first compound, second compound 1 µM
[21] = second compound 0.01 µM, first compound 0.00949 µM
[22] = second compound 0.01 µM, first compound 0.03 µM
[23] = second compound 0.01 µM, first compound 0.0949 µM
[24] = second compound 0.01 µM, first compound 0.3 µM
[25] = second compound 0.0316 µM, first compound 0.00949 µM
[26] = second compound 0.0316 µM, first compound 0.03 µM
[27] = second compound 0.0316 µM, first compound 0.0949 µM
[28] = second compound 0.0316 µM, first compound 0.3 µM
[29] = second compound 0.1 µM, first compound 0.00949 µM
[30] = second compound 0.1 µM, first compound 0.03 µM
[31] = second compound 0.1 µM, first compound 0.0949 µM
[32] = second compound 0.1 µM, first compound 0.3 µM
[33] = second compound 0.316 µM, first compound 0.00949 µM
[34] = second compound 0.316 µM, first compound 0.03 µM
[35] = second compound 0.316 µM, first compound 0.0949 µM
[36] = second compound 0.316 µM, first compound 0.3 µM
[37] = second compound 1 µM, first compound 0.00949 µM
[38] = second compound 1 µM, first compound 0.03 µM
[39] = second compound 1 µM, first compound 0.0949 µM
[40] = second compound 1 µM, first compound 0.3 µM

Compound `O=C(c1cc(Cc2n[nH]c(=O)c3ccccc23)ccc1F)N1CCN(C(=O)C2CC2)CC1` + CCN1C(C(=O)NC23CCC(C(=O)O)(CC2)CC3)C(c2cccc(Cl)c2F)C2(C(=O)Nc3cc(Cl)ccc32)C12CCCCC2 has an IC50 [1] greater than 10000 nM, an IC50 [2] greater than 10000 nM and an IC50 [3] greater than 10000 nM. For the same compound, the IC50 [4] was greater than 10000 nM, the IC50 [5] was greater than 10000 nM and the viability, T/C [6] was 99.1%. It also gave a viability, T/C [7] of 93.9%, a viability, T/C (second compound 0.03 µM, first compound 0.316 µM) of 93.8% and a viability, T/C (second compound 0.03 µM, first compound 1 µM) of 88.2%. The viability, T/C (second compound 0.03 µM, first compound 3.16 µM) was 88.8%, the viability, T/C (second compound 0.03 µM, first compound 10 µM) was 73.8% and the viability, T/C [8] was 106%. It also gave a viability, T/C [9] of 104%, a viability, T/C (second compound 0.0949 µM, first compound 0.316 µM) of 98.8% and a viability, T/C (second compound 0.0949 µM, first compound 1 µM) of 99.5%. The viability, T/C (second compound 0.0949 µM, first compound 3.16 µM) was 90.2%, the viability, T/C (second compound 0.0949 µM, first compound 10 µM) was 77.3% and the viability, T/C [10] was 103%. The viability, T/C [11] was 103%, the viability, T/C (second compound 0.3 µM, first compound 0.316 µM) was 100% and the viability, T/C (second compound 0.3 µM, first compound 1 µM) was 97.5%. The viability, T/C (second compound 0.3 µM, first compound 3.16 µM) was 93%, the viability, T/C (second compound 0.3 µM, first compound 10 µM) was 80.3% and the viability, T/C [12] was 102%. The viability, T/C [13] was 107%, the viability, T/C (second compound 0.949 µM, first compound 0.316 µM) was 103% and the viability, T/C (second compound 0.949 µM, first compound 1 µM) was 101%. The viability, T/C (second compound 0.949 µM, first compound 3.16 µM) was 97.9%, the viability, T/C (second compound 0.949 µM, first compound 10 µM) was 80.7% and the viability, T/C [14] was 99.1%. It also gave a viability, T/C [15] of 103%, a viability, T/C (second compound 3 µM, first compound 0.316 µM) of 94.8% and a viability, T/C (second compound 3 µM, first compound 1 µM) of 93.4%. The viability, T/C (second compound 3 µM, first compound 3.16 µM) was 86.7% and the viability, T/C (second compound 3 µM, first compound 10 µM) was 77.8%.
With `CCN1C(C(=O)NC23CCC(C(=O)O)(CC2)CC3)C(c2cccc(Cl)c2F)C2(C(=O)Nc3cc(Cl)ccc32)C12CCCCC2` (configuration not stated) + CNC(C)C(=O)NC1CN(S(=O)(=O)c2cccc(S(=O)(=O)N3CCC4CCC(C(=O)NC(c5ccccc5)c5ccccc5)N4C(=O)C(NC(=O)C(C)NC)C3)c2)CCC2CCC(C(=O)NC(c3ccccc3)c3ccccc3)N2C1=O the IC50 [16] was less than 9.49 nM, the IC50 [17] was less than 9.49 nM and the IC50 [18] was less than 9.49 nM. It also gave an IC50 [19] of less than 9.49 nM, an IC50 [20] of less than 9.49 nM and a viability, T/C [21] of 2.02%. For the same compound, the viability, T/C [22] was 2.75%, the viability, T/C [23] was 1.79% and the viability, T/C [24] was 1.37%. The viability, T/C (second compound 0.01 µM, first compound 0.949 µM) was 2.73%, the viability, T/C (second compound 0.01 µM, first compound 3 µM) was 2.05% and the viability, T/C [25] was 1.54%. The viability, T/C [26] was 2.84%, the viability, T/C [27] was 1.94% and the viability, T/C [28] was 0.92%. For the same compound, the viability, T/C (second compound 0.0316 µM, first compound 0.949 µM) was 1.76%, the viability, T/C (second compound 0.0316 µM, first compound 3 µM) was 1.43% and the viability, T/C [29] was 1.27%. It also gave a viability, T/C [30] of 1.6%, a viability, T/C [31] of 1.85% and a viability, T/C [32] of 0.87%. For the same compound, the viability, T/C (second compound 0.1 µM, first compound 0.949 µM) was 1.78%, the viability, T/C (second compound 0.1 µM, first compound 3 µM) was 2.03% and the viability, T/C [33] was 0.92%. For the same compound, the viability, T/C [34] was 2.14%, the viability, T/C [35] was 1.07% and the viability, T/C [36] was 0.78%. It also gave a viability, T/C (second compound 0.316 µM, first compound 0.949 µM) of 1.14%, a viability, T/C (second compound 0.316 µM, first compound 3 µM) of 1.24% and a viability, T/C [37] of 1.09%. The viability, T/C [38] was 0.9%, the viability, T/C [39] was 0.88% and the viability, T/C [40] was 2.3%. The viability, T/C (second compound 1 µM, first compound 0.949 µM) was 0.81% and the viability, T/C (second compound 1 µM, first compound 3 µM) was 0.71%.
For `Cn1ncnc1[C@H]1c2n[nH]c(=O)c3cc(F)cc(c23)N[C@@H]1c1ccc(F)cc1` + CCN1C(C(=O)NC23CCC(C(=O)O)(CC2)CC3)C(c2cccc(Cl)c2F)C2(C(=O)Nc3cc(Cl)ccc32)C12CCCCC2, the IC50 [1] was greater than 100 nM, the IC50 [2] was greater than 100 nM and the IC50 [3] was greater than 100 nM. It also gave an IC50 [4] greater than 100 nM, an IC50 [5] greater than 100 nM and a viability, T/C (second compound 0.03 µM, first compound 0.000316 µM) of 101%. For the same compound, the viability, T/C (second compound 0.03 µM, first compound 0.001 µM) was 96.3%, the viability, T/C (second compound 0.03 µM, first compound 0.00316 µM) was 90.4% and the viability, T/C (second compound 0.03 µM, first compound 0.01 µM) was 96.2%. The viability, T/C [6] was 85%, the viability, T/C [7] was 86% and the viability, T/C (second compound 0.0949 µM, first compound 0.000316 µM) was 112%. For the same compound, the viability, T/C (second compound 0.0949 µM, first compound 0.001 µM) was 101%, the viability, T/C (second compound 0.0949 µM, first compound 0.00316 µM) was 93.6% and the viability, T/C (second compound 0.0949 µM, first compound 0.01 µM) was 95.9%. The viability, T/C [8] was 90.2%, the viability, T/C [9] was 88.4% and the viability, T/C (second compound 0.3 µM, first compound 0.000316 µM) was 110%. For the same compound, the viability, T/C (second compound 0.3 µM, first compound 0.001 µM) was 110%, the viability, T/C (second compound 0.3 µM, first compound 0.00316 µM) was 98.5% and the viability, T/C (second compound 0.3 µM, first compound 0.01 µM) was 102%. For the same compound, the viability, T/C [10] was 89.8%, the viability, T/C [11] was 85.4% and the viability, T/C (second compound 0.949 µM, first compound 0.000316 µM) was 108%. For the same compound, the viability, T/C (second compound 0.949 µM, first compound 0.001 µM) was 109%, the viability, T/C (second compound 0.949 µM, first compound 0.00316 µM) was 102% and the viability, T/C (second compound 0.949 µM, first compound 0.01 µM) was 97.8%. It also gave a viability, T/C [12] of 93.6%, a viability, T/C [13] of 91.8% and a viability, T/C (second compound 3 µM, first compound 0.000316 µM) of 100%. The viability, T/C (second compound 3 µM, first compound 0.001 µM) was 99.4%, the viability, T/C (second compound 3 µM, first compound 0.00316 µM) was 94.4% and the viability, T/C (second compound 3 µM, first compound 0.01 µM) was 91.8%. For the same compound, the viability, T/C [14] was 82% and the viability, T/C [15] was 87.8%.
`C#Cc1c(F)ccc2cc(O)cc(-c3ncc4c(N5CC6CCC(C5)N6)nc(OCC56CCCN5CC(F)C6)nc4c3F)c12` (configuration not stated) was tested, and the viability, T/C (compound 0.0316 µM) was 120% and 100% and 106%, the viability, T/C (compound 0.1 µM) was 95.9% and 97.5% and 97.1% and the viability, T/C (compound 0.316 µM) was 111% and 98.8% and 91.7%. For the same compound, the viability, T/C (compound 1 µM) was 66.2% and 72.6% and 72.7%, the viability, T/C (compound 3.16 µM) was 48.7% and 64.1% and 62.1% and the viability, T/C (compound 10 µM) was 35.2% and 51.7% and 50.2%. The IC50 (curve of compound) was 2170 nM and > 10000 nM.
Compound `NC(=O)C(=Cn1cnc(-c2cc(C(F)(F)F)cc(C(F)(F)F)c2)n1)c1cncnc1` + CNC(C)C(=O)NC1CN(S(=O)(=O)c2cccc(S(=O)(=O)N3CCC4CCC(C(=O)NC(c5ccccc5)c5ccccc5)N4C(=O)C(NC(=O)C(C)NC)C3)c2)CCC2CCC(C(=O)NC(c3ccccc3)c3ccccc3)N2C1=O has an IC50 [16] of less than 0.949 nM, an IC50 [17] of less than 0.949 nM and an IC50 [18] of less than 0.949 nM. It also gave an IC50 [19] of less than 0.949 nM, an IC50 [20] of less than 0.949 nM and a viability, T/C (second compound 0.01 µM, first compound 0.000949 µM) of 3.47%. It also gave a viability, T/C (second compound 0.01 µM, first compound 0.003 µM) of 3.32%, a viability, T/C [21] of 2.92% and a viability, T/C [22] of 3.34%. For the same compound, the viability, T/C [23] was 3.01%, the viability, T/C [24] was 1.3% and the viability, T/C (second compound 0.0316 µM, first compound 0.000949 µM) was 1.67%. It also gave a viability, T/C (second compound 0.0316 µM, first compound 0.003 µM) of 1.38%, a viability, T/C [25] of 1.57% and a viability, T/C [26] of 1.39%. For the same compound, the viability, T/C [27] was 1.1%, the viability, T/C [28] was 0.42% and the viability, T/C (second compound 0.1 µM, first compound 0.000949 µM) was 1.05%. For the same compound, the viability, T/C (second compound 0.1 µM, first compound 0.003 µM) was 1.72%, the viability, T/C [29] was 1.5% and the viability, T/C [30] was 1.76%. The viability, T/C [31] was 0.66%, the viability, T/C [32] was 0.29% and the viability, T/C (second compound 0.316 µM, first compound 0.000949 µM) was 1.29%. For the same compound, the viability, T/C (second compound 0.316 µM, first compound 0.003 µM) was 1.22%, the viability, T/C [33] was 1.39% and the viability, T/C [34] was 1.21%. For the same compound, the viability, T/C [35] was 0.77%, the viability, T/C [36] was 0.57% and the viability, T/C (second compound 1 µM, first compound 0.000949 µM) was 0.82%. It also gave a viability, T/C (second compound 1 µM, first compound 0.003 µM) of 1.08%, a viability, T/C [37] of 1.07% and a viability, T/C [38] of 0.91%. For the same compound, the viability, T/C [39] was 0.91% and the viability, T/C [40] was 0.37%.
